Measured values published in ChEMBL document CHEMBL6087454, “Identification of Novel Organo-Se BTSA-Based Derivatives as Potent, Reversible, and Selective PPARγ Covalent Modulators for Antidiabetic Drug Discovery” (J Med Chem, 2025).
Active and inactive are the calls of the source. The calls are words filed in the database; no cut-off is given here.

Experiments:
[1] = tested on: Mus musculus; experiment: Antidiabetic activity in male db/db mouse model assessed as downregulation of CD36 gene expression in white adipose tissue at 2.5 to 10 mg/kg/day, ip administered for 4 weeks by RT-qPCR analysis; type: functional, organism-based; conditions: dose 2.5-10 mg/kg/day
[2] = tested on: Mus musculus; experiment: Antidiabetic activity in male db/db mouse model assessed as downregulation of SOCS3 gene expression in liver at 2.5 to 10 mg/kg/day, ip administered for 4 weeks by RT-qPCR analysis; type: functional, organism-based; conditions: dose 2.5-10 mg/kg/day
[3] = Toxicity in male db/db mouse model assessed as effect on heart morphology at 2.5 to 10 mg/kg/day, ip administered for 4 weeks; type: organism-based; conditions: in vivo, 672 h, dose 2.5-10 mg/kg/day
[4] = Toxicity in male db/db mouse model assessed as effect on spleen morphology at 2.5 to 10 mg/kg/day, ip administered for 4 weeks; type: organism-based; conditions: in vivo, 672 h, dose 2.5-10 mg/kg/day
[5] = Toxicity in male db/db mouse model assessed as increase in brown adipose tissue weight at 2.5 to 10 mg/kg/day, ip administered for 4 weeks; type: organism-based; conditions: in vivo, 672 h, dose 2.5-10 mg/kg/day
[6] = tested on: 3T3-L1; experiment: Insulin sensitizing activity in mouse 3T3-L1 cells assessed as upregulation of adiponectin gene expression at 1 uM measured after 48 hrs by RT-qPCR analysis; type: functional, cell-based
[7] = target: T1, Peroxisome proliferator-activated receptor gamma (Homo sapiens) (UniProt P37231); experiment: Covalent binding affinity to recombinant PPAR-gamma ligand binding domain (unknown origin) at Cys285 residue at 0.4 uM incubated for 30 mins by rhodamine-maleimide staining based SDS-PAGE analysis; conditions: filed as partial agonist
T1 sequence (whole entry): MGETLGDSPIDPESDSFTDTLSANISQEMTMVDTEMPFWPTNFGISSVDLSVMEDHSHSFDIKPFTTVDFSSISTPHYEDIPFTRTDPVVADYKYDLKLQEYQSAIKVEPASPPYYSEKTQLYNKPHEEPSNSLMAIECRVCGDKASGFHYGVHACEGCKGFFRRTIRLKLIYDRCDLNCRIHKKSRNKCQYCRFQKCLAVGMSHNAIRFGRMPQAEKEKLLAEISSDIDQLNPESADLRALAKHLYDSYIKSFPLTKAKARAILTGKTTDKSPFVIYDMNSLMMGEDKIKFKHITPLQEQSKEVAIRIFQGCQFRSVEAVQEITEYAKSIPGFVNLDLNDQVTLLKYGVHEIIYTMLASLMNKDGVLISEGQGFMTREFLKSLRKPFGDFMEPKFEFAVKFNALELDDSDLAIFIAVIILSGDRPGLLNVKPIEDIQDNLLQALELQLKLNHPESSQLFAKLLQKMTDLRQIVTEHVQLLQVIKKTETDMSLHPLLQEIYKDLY

[8] = tested on: 3T3-L1; experiment: Insulin sensitizing activity in mouse 3T3-L1 cells assessed as downregulation of PTP1B gene expression at 1 uM measured after 48 hrs by RT-qPCR analysis; type: functional, cell-based
[9] = tested on: Mus musculus; experiment: Downregulation of PPAR-gamma protein expression in male db/db mouse liver at 2.5 to 10 mg/kg/day, ip administered for 4 weeks by Western blotting analysis; type: functional, organism-based; conditions: dose 2.5-10 mg/kg/day
[10] = tested on: Mus musculus; experiment: Effect on pRb protein expression in male db/db mouse white adipose tissue at 2.5 to 10 mg/kg/day, ip administered for 4 weeks by Western blotting analysis; type: functional, organism-based; conditions: dose 2.5-10 mg/kg/day
[11] = Toxicity in male db/db mouse model assessed as increase in white adipose tissue weight at 2.5 to 10 mg/kg/day, ip administered for 4 weeks; type: organism-based; conditions: in vivo, 672 h, dose 2.5-10 mg/kg/day
[12] = tested on: 3T3-L1; experiment: Inhibition of adipogenesis in mouse 3T3-L1 cells assessed as downregulation of LPL gene expression at 1 uM measured after 48 hrs by RT-qPCR analysis; type: functional, cell-based
[13] = tested on: Mus musculus; experiment: Effect on pRb protein expression in male db/db mouse liver at 2.5 to 10 mg/kg/day, ip administered for 4 weeks by Western blotting analysis; type: functional, organism-based; conditions: dose 2.5-10 mg/kg/day
[14] = Toxicity in male db/db mouse model assessed as increase in lipid accumulation in liver at 2.5 to 10 mg/kg/day, ip administered for 4 weeks by Oil red O staining based analysis; type: organism-based; conditions: in vivo, 672 h, dose 2.5-10 mg/kg/day
[15] = tested on: Mus musculus; experiment: Antidiabetic activity in male db/db mouse model assessed as reduction in random blood glucose level administered intraperitoneally for 4 weeks; type: functional, organism-based; conditions: dose 2.5-10 mg/kg/day, route ip
[16] = Toxicity in male db/db mouse model assessed as effect on kidney morphology at 2.5 to 10 mg/kg/day, ip administered for 4 weeks; type: organism-based; conditions: in vivo, 672 h, dose 2.5-10 mg/kg/day
[17] = tested on: Mus musculus; experiment: Antidiabetic activity in male db/db mouse model assessed as upregulation of adiponectin gene expression in white adipose tissue at 2.5 to 10 mg/kg/day, ip administered for 4 weeks by RT-qPCR analysis; type: functional, organism-based; conditions: dose 2.5-10 mg/kg/day
[18] = Toxicity in male db/db mouse model assessed as increase in white adipocytes size at 2.5 to 10 mg/kg/day, ip administered for 4 weeks by H and E staining based analysis; type: organism-based; conditions: in vivo, 672 h, dose 2.5-10 mg/kg/day
[19] = Toxicity in male db/db mouse model assessed as effect on kidney weight at 2.5 to 10 mg/kg/day, ip administered for 4 weeks; type: organism-based; conditions: in vivo, 672 h, dose 2.5-10 mg/kg/day
[20] = Toxicity in male db/db mouse model assessed as increase in brown adipocytes size at 2.5 to 10 mg/kg/day, ip administered for 4 weeks by H and E staining based analysis; type: organism-based; conditions: in vivo, 672 h, dose 2.5-10 mg/kg/day
[21] = Toxicity in male db/db mouse model assessed as effect on spleen weight at 2.5 to 10 mg/kg/day, ip administered for 4 weeks; type: organism-based; conditions: in vivo, 672 h, dose 2.5-10 mg/kg/day
[22] = tested on: Mus musculus; experiment: Antidiabetic activity in male db/db mouse model assessed as downregulation of C/EBPalpha gene expression in liver at 2.5 to 10 mg/kg/day, ip administered for 4 weeks by RT-qPCR analysis; type: functional, organism-based; conditions: dose 2.5-10 mg/kg/day
[23] = target: T1, Peroxisome proliferator-activated receptor gamma (Homo sapiens); experiment: Partial agonist activity at recombinant GST-tagged human PPAR-gamma ligand binding domain (E235 to Y505 residues) extracted from Escherichia coli BL21 (DE3) cells by TR-FRET assay; conditions: filed as partial agonist
[24] = tested on: 3T3-L1; experiment: Inhibition of adipogenesis in mouse 3T3-L1 cells assessed as downregulation of FASN gene expression at 1 uM measured after 48 hrs by RT-qPCR analysis; type: functional, cell-based
[25] = tested on: Mus musculus; experiment: Antidiabetic activity in male db/db mouse model assessed as downregulation of aP2 gene expression in white adipose tissue at 2.5 to 10 mg/kg/day, ip administered for 4 weeks by RT-qPCR analysis; type: functional, organism-based; conditions: dose 2.5-10 mg/kg/day
[26] = tested on: Mus musculus; experiment: In vivo inhibition of Erk/Cdk5-mediated PPAR-gamma phosphorylation at Ser273 residue in male db/db mouse model assessed as decrease in phosphorylated-MEK expression in liver at 2.5 to 10 mg/kg/day, ip administered for 4 weeks by Western blotting analysis; type: functional, organism-based; conditions: dose 2.5-10 mg/kg/day
[27] = tested on: Mus musculus; experiment: In vivo inhibition of Erk/Cdk5-mediated PPAR-gamma phosphorylation at Ser273 residue in male db/db mouse model assessed as decrease in phosphorylated-ERK expression in white adipose tissue at 2.5 to 10 mg/kg/day, ip administered for 4 weeks by Western blotting analysis; type: functional, organism-based; conditions: dose 2.5-10 mg/kg/day
[28] = Toxicity in male db/db mouse model assessed as effect on heart weight at 2.5 to 10 mg/kg/day, ip administered for 4 weeks; type: organism-based; conditions: in vivo, 672 h, dose 2.5-10 mg/kg/day
[29] = Toxicity in male db/db mouse model assessed as effect on liver weight at 2.5 to 5 mg/kg, ip administered for 4 weeks; type: organism-based; conditions: in vivo, 672 h, dose 2.5-5 mg/kg

Compound: Cc1ccc(S(=O)(=O)Oc2ccc(S3(=O)=N[Se]c4cc(OS(=O)(=O)c5ccc(C)cc5)ccc43)cc2)cc1 (centres undefined)
- Activity [1]: Active
- Activity [2]: Active
- Activity [3]: Non-toxic
- Activity [4]: Non-toxic
- Activity [5]: Non-toxic
- Activity [6]: Active
- Activity [7]: Active
- Activity [8]: Active
- Activity [9]: inactive
- Activity [10]: inactive
- Activity [11]: Non-toxic
- inhibition [12]: Active
- Activity [13]: inactive
- Activity [14]: Non-toxic
- Activity [15]: Dose-dependent-effect
- Activity [16]: Non-toxic
- Activity [17]: Active
- Activity [18]: Non-toxic
- Activity [19]: Non-toxic
- Activity [20]: Non-toxic
- Activity [21]: Non-toxic
- Activity [22]: Active
- Activity [23]: Active
- inhibition [24]: Active
- Activity [25]: Active
- inhibition [26]: Active
- inhibition [27]: Active
- Activity [28]: Non-toxic
- Activity [29]: Non-toxic
